{"source": "patent US20250009716A1", "about": "“NOVEL INHIBITORS OF CLAUDIN-1 FOR THERAPEUTIC INTERVENTIONS” (BOARD OF REGENTS OF THE UNIVERSITY OF NEBRASKA, priority 2021, published 2025)", "assay_type_in_all_cases": "cell-based", "key": {"[1]": {"biological_target": "T1, claudin-1/Src complex in SW480claudin-1 cells (Homo sapiens, UniProt O95832)", "T1 construct": "claudin-1 was expressed in a non-metastatic CRC cell line, SW480 cells; expressed in transfected cells; host or cells: SW480 colorectal cancer cells expressing claudin-1 (SW480claudin-1)", "T1 sequence (O95832 1-211)": "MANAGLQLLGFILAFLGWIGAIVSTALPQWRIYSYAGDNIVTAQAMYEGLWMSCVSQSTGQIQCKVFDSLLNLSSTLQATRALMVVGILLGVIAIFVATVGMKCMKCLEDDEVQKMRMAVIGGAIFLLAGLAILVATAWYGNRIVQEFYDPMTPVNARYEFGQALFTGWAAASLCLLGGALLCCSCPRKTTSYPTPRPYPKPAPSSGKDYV", "assay": "Claudin-1/Src association (proximity ligation assay, Co-IP)", "conditions": "PLA, Co-IP or immuno-precipitation", "source_text": "The CSC cells contribute to the generation of metastasis (16-19), and key CSC characteristics are highly relevant to metastasis, including invasive motility, and, resistance to apoptosis (20,21). […] Considering that chemoresistance is central to the CRC progression and metastasis, we further tested if adjuvant use of 16 with 5FU can have significant bearing upon these traits. Colon cancer cells were subjected to exogenous administration of 16 alone, or in combination with the 5-FU, the conventional anti-CRC drug. […] To further determine the mechanistic details the effect of 16 on association of claudin-1 and Src, SW480claudin-1 cells were treated with 16 or the vehicle and resultant cell lysate was subjected to Proximity ligation assay (PLA) or Co—IP."}, "[2]": {"tested_on": "SW480claudin-1 cells", "assay": "Resistance to anoikis in claudin-1 overexpressing cells", "conditions": "72 h treatment", "source_text": "The crystal structure of claudin-1 is unknown. Therefore, an in-silico protein folding program, YASARA, was used to identify an effective claudin-1 inhibitor. The resultant 3D-structure was then modeled using Molegro Virtual Docker (MVD) software program. These in-silico analyses identified putative cavities in the claudin-1 protein that can be targeted by small molecule inhibitors. Next, a 100K library of small molecules was screened in silico using the MVD. The top 10 inhibitors that bound to the Site #3 (targeting near c-terminal domain; the most accessible pocket; FIG. 2A) with the best binding energies were selected as hits and used for further testing. Screening of these inhibitors named Inihibitor-1 (1-1) to Inhibitor-10 (I-10) was done using SW480claudin-1, SW620 and control cells. Claudin-1 deficient HCT116 cells (WT-APC) or SW620shRNAcld-1 were used as negative controls. Resistance to anoikis and cell invasion was used as biological end-points in testing these inhibitors. […] 16 has the following structure:\n(§1) To this end, a library of molecules was synthesized in order to develop an initial SAR evaluation. The first compounds tested eliminated the acylated (thio) urea as well as the napthyl group and evaluated just the urea/phenyl compounds (Compounds 1-6). The methoxy group of the naphthalene ring system was needed when the benzimidazole group was present (16 vs. Compound 8). […] The result of metabolic stability was expressed as the percentage of drug remaining at each time. […] To further determine the effect of PDS-0330 on p-Src expression and association, cells were treated with Compound 1, 16 and PDS-0330. Expression and association with p-Src was unaffected with Compound 1 (negative control). The specificity of PDS-0330 for CLDN1 was further confirmed by treating SW480^CLDN1, HCT116^CLDN2 (overexpressing another tight junction protein) or normal IEC-6 cells with PDS-0330 (FIG. 12)."}, "[3]": {"tested_on": "p-Src and c-PARP in SW480claudin-1 overexpressing cells", "assay": "Expression of p-Src, Src and c-PARP", "source_text": "as §1\nFurthermore, DLD-1 chemoresistant cells were treated with PDS-0330 and I-6. […] Based on the in vitro activity and metabolic stability, PDS-0330, and any potential new analogs will be evaluated in animal models to determine the pharmacokinetic properties and biodistribution as described in preliminary data."}}, "data": [{"smiles": "COc1ccccc1NC(=O)Nc1ccc(-c2nc3ccccc3[nH]2)cc1", "note": "[Compound 1]", "values": [{"measurement": "claudin-1/Src (p-Src) association", "setting": "[1]", "result": "unaffected"}, {"measurement": "effect on resistance to anoikis", "setting": "[2]", "result": "not much change"}, {"measurement": "p-Src expression", "setting": "[3]", "result": "unaffected"}]}]}
